Results reported in article PMC8309059, “In Vitro Metabolism Study of Seongsanamide A in Human Liver Microsomes Using Non-Targeted Metabolomics and Feature-Based Molecular Networking” (Pharmaceutics, 2021).
Entries after “also recorded” stand apart in the source; their conditions may differ.

Tests used:
rCYP3A5 = target: T1, rCYP3A5 (Homo sapiens, UniProt P20815); assay: Reaction phenotyping with recombinant cytochrome P450 isoforms: rCYP3A5; type: in vitro ADME; settings: 20 pmol/mL rP450, seongsanamide A 1 µM, pH 7.4, 5 min pre-incubation, 15 min at 37 °C with NADPH generating system, LC-MS/MS, n = 3
T1 construct: purchased Corning life sciences (Woburn, MA, USA)
Method: (§1) The incubation mixture consisted of 100 mM potassium phosphate buffer (pH 7.4), 20 pmol/mL rCYP1A2, 2A6, 2B6, 2C8, 2C9, 2C19, 2D6, 2E1, 2J2, 3A4 or 3A5 isoforms, and seongsanamide A (1 µM) in a final volume of 100 µL. After a 5 min pre-incubation period at 37 °C, reactions were initiated by the addition of an NADPH generating system and further incubated for 15 min at 37 °C. The reaction was terminated by placing the incubation tubes on ice and by immediately adding 50 µL of acetonitrile. After centrifugation, aliquots of the supernatant were injected into an LC-tandem mass spectrometer (MS/MS). Seongsanamide A and its four metabolites (M1~M4) were separated on a Kinetex XB-C18 column (100 × 2.1 mm, Phenomenex) and analyzed using a Shimadzu LC-MS 8040 MS/MS (Shimadzu, Kyoto, Japan) equipped with a Nexera X2 LC system (Shimadzu) coupled with an electrospray ionization (ESI) interface. LC elution conditions for the analysis of seongsanamide A and its four metabolites were: 10 to 90% B for 0–6 min, 90 to 10% B for 6–6.1 min, and 10% B for 6.1–10 min. Detection of the ions was performed by monitoring the transitions of m/z 836.5 → 565.3 for hydrolyzed seongsanamide A (M1), m/z 1021.5 → 836.5 for monohydroxy-seongsanamide A (M2), m/z 1037.5 → 836.5 for dihydroxy-seongsanamide A (M3), and m/z 1053.5 → 836.5 for tridihydroxy-seongsanamide A (M4). […]

CYP2B6 = target: T2, CYP2B6 (Homo sapiens, UniProt P20813); assay: Inhibition of CYP2B6 activity (bupropion hydroxylation) in pooled human liver microsomes; type: in vitro ADME; settings: pooled HLMs, cocktail set A; inhibitor 0, 0.5, 2, 5, 20, 50 µM; 10 min at 37 °C; LC-MS/MS
T2 construct: with slight modifications in the pooled HLMs; tissue XenoTech XTreme 200; host or cells: pooled human liver microsomes
T2 sequence (P20813 1-491): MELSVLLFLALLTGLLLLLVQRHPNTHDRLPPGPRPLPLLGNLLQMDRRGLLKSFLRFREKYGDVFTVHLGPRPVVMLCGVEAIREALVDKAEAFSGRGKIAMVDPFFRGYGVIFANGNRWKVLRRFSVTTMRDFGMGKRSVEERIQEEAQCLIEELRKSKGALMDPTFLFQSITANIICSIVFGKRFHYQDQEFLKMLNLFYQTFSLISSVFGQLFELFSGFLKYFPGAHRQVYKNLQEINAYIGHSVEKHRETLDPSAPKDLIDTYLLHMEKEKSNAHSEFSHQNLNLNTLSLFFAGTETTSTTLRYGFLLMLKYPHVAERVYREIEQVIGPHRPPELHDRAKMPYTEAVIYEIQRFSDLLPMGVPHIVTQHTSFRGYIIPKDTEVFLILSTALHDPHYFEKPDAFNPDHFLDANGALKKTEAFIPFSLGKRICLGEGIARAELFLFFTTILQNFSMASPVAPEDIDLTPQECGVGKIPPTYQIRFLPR
Method: (§2) The inhibitory potency of seongsanamide A was evaluated by a previously described method with slight modifications in the pooled HLMs. The microsomal incubation was conducted using two cocktail sets containing P450-specific probe substrates; A: phenacetin (CYP1A2), bupropion (CYP2B6), amodiaquine (CYP2C8), tolbutamide (CYP2C9), omeprazole (CYP2C19), and dextromethorphan (CYP2D6); B: coumarin (CYP2A6), chlorzoxazone (CYP2E1), and midazolam (CYP3A). After incubation for 10 min at 37 °C in HLMs in the presence or absence of seongsanamide A (0, 0.5, 2, 5, 20, and 50 µM), the reaction was quenched with cold acetonitrile containing trimipramine as an internal standard. After centrifugation, aliquots of the supernatants were analyzed using LC-MS/MS as described previously. IC50 (concentration of the inhibitor causing 50% inhibition of the original enzyme activity) values were calculated using WinNonlin (Pharsight, Mountain View, CA, USA).

[1] = test system: nine cytochrome P450 enzymes; assay: Inhibitory potential against nine cytochrome P450 isoforms in human liver microsomes (summary statements); type: in vitro ADME; settings: pooled HLMs
Method: as §2

[2] = test system: bone marrow-derived mast cells; settings: even at 100 µM; cited from earlier work
Excerpt: The genus Bacillus in the marine environment is known to produce structurally diverse peptides, including bicyclic peptides. Seongsanamide A (Figure 1) is one of four bioactive bicyclic depsipeptides isolated from Bacillus safensis KCTC 12796BP, which was obtained from a marine sponge collected from Seongsan on Jeju Island, Korea. It contains a unique isodityrosine moiety which is responsible for its bioactivity.

rCYP3A4 = target: T3, rCYP3A4 (Homo sapiens, UniProt P08684); assay: Reaction phenotyping with recombinant cytochrome P450 isoforms: rCYP3A4; type: in vitro ADME; settings: 20 pmol/mL rP450, seongsanamide A 1 µM, pH 7.4, 5 min pre-incubation, 15 min at 37 °C with NADPH generating system, LC-MS/MS, n = 3
T3 construct: purchased Corning life sciences (Woburn, MA, USA)
Method: as §1

CYP1A2 = target: T4, CYP1A2 (Homo sapiens, UniProt P05177); type: in vitro ADME
T4 construct: with slight modifications in the pooled HLMs; tissue XenoTech XTreme 200; host or cells: pooled human liver microsomes
T4 sequence (P05177 1-516): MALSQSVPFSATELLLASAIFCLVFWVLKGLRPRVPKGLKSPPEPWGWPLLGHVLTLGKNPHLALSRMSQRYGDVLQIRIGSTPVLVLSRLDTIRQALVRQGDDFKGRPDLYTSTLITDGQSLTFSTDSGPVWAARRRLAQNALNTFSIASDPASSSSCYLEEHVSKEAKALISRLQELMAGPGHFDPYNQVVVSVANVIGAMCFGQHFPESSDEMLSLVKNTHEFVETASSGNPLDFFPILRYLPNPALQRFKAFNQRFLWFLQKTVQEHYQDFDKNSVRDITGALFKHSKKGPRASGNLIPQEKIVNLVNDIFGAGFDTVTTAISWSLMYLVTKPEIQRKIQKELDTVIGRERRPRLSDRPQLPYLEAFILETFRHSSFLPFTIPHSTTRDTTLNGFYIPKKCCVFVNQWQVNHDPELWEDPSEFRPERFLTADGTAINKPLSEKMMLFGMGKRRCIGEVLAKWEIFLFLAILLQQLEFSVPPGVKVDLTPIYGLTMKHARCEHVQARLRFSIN
Method: as §2

CYP2E1 = target: T5, CYP2E1 (Homo sapiens, UniProt P05181); type: in vitro ADME
T5 construct: with slight modifications in the pooled HLMs; tissue XenoTech XTreme 200; host or cells: pooled human liver microsomes
Method: as §2

CYP3A = settings: read-out: IC50 against CYP3A; cited from earlier work

T1 sequence (P20815 whole entry, canonical isoform): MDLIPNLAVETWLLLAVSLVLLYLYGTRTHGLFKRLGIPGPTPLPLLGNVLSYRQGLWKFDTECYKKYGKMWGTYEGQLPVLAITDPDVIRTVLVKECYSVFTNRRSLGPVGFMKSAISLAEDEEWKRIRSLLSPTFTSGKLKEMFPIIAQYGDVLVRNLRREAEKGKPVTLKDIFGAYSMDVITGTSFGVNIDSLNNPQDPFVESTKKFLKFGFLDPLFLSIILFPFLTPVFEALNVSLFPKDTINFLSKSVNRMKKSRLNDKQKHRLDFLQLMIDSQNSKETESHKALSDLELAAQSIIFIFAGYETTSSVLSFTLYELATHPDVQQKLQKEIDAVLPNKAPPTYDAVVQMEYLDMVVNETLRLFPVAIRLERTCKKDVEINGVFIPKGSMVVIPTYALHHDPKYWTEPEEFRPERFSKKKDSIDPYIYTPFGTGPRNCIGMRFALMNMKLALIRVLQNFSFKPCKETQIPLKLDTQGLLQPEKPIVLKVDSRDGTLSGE
T3 sequence (P08684 whole entry, canonical isoform): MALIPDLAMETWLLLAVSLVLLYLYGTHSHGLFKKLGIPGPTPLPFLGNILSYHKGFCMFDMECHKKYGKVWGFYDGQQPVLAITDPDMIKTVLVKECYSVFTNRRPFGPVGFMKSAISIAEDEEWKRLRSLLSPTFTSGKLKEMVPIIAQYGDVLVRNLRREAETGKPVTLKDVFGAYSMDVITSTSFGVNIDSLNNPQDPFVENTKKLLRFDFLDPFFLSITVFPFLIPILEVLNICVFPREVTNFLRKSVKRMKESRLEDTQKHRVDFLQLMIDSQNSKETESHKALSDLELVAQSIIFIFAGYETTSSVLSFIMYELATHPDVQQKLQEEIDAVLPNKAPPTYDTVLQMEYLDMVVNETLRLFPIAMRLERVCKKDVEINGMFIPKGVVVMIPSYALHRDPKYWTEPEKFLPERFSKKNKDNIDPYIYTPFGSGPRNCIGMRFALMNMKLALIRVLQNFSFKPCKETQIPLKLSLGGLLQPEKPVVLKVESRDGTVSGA
T5 sequence (P05181 whole entry): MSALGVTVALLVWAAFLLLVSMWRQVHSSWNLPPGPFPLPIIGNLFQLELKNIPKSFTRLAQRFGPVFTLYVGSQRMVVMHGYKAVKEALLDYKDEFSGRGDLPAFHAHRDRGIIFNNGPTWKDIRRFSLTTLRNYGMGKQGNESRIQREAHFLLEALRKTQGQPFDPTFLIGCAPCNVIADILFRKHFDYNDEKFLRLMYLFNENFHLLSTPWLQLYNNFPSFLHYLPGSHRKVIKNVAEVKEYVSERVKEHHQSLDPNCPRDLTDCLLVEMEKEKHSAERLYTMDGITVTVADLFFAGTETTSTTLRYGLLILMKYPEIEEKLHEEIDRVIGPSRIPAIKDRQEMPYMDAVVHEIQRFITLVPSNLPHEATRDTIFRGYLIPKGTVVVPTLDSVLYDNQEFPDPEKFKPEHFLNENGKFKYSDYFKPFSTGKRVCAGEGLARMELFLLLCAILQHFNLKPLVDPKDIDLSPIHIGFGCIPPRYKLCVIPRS

Structure (SMILES) | Role of CYP3A5 in formation of metabolites (rCYP3A5) | IC50 (CYP2B6) [µM] | IC50 at 10 min ([1]; human, pooled human liver microsomes, all nine isoforms taken together, read-out: IC50 against the nine cytochrome P450 isoforms (summary bound)) [µM] | Effect on the activities of the other P450 isoforms ([1]; seongsanamide A at 50 µM) | Cytotoxicity [2] | Role of CYP3A4 in formation of metabolites M1-M4 (rCYP3A4) | IC50, phenacetin O-deethylation (CYP1A2) (CYP1A2) [µM] | IC50, chlorzoxazone 6-hydroxylation (CYP2E1) (CYP2E1) [µM] | IC50 (CYP3A) [µM]
CCC(=O)N[C@@H](CC(C)C)C(=O)N[C@H](C)C(=O)N[C@@H]1Cc2ccc(cc2)Oc2cc(ccc2O)C[C@@H]2NC(=O)[C@H]([C@@H](C)CC)NC(=O)[C@H](CC(C)C)NC(=O)[C@@H](CC(C)C)NC(=O)[C@@H](NC1=O)[C@@H](C)OC2=O [Seongsanamide A] | major metabolic enzymes; also recorded: CYP3A5 was involved in the formation of mono-hydroxyseongsanamide A (M2) | 21.9 to 25.5 | > 10 | did not affect | without significant cytotoxicity | major metabolic enzymes; also recorded: CYP3A4 played a major role in the formation of M1, M2, M3, and M4 | >50 | >50 | 
CC(C)(C)NC(=O)[C@@H]1C[C@@H]2CCCC[C@@H]2CN1C[C@@H](O)[C@H](Cc1ccccc1)NC(=O)[C@H](CC(N)=O)NC(=O)c1ccc2ccccc2n1 [saquinavir] |  |  |  |  |  |  |  |  | 2.14
